Source: patent publication US20220000811A1, “COMPOSITION FOR PROMOTING HAIR GROWTH COMPRISING A GUANINE DERIVATIVE” (KOREA RESEARCH INSTITUTE OF BIOSCIENCE AND BIOTECHNOLOGY, priority 2019, published 2022)

Key:
[1] = tested on: auricle; assay: Auricle punch analysis (auricular tissue repair); format: in vivo, mouse; conditions: 2 mm ear punch holes, daily topical application, indicated concentrations
Method: For the auricular tissue repair analysis, three holes with a diameter of 2 mm were drilled in each ear using a punching instrument (Fine Science Tools, British Columbia, Canada). IM at the indicated concentration was applied daily with a sterile cotton swab. The hole area was measured with digital calipers (VWR, Radnor, Pa., USA).

[2] = tested on: human embryonic stem cells (hESCs); assay: Maintaining stemness of human embryonic stem cells in unconditioned medium, AP staining; format: cell-based; conditions: for improvement of effect of maintaining stemness: hESCs in UM
Method: Additionally, the effect of the compounds of the present invention on maintaining sternness of human embryonic stern cells (hESCs) was confirmed (FIG. 4). Specifically, when hESCs were cultured in an unconditioned medium (UM), the sternness was lost, and AP activity was weakened (FIG. 4a). […] In particular, when IM176OUT05 was treated at 10 nM and 100 nM concentrations, it was confirmed that the effect of maintaining the sternness was improved by 7.6 times and 8.2 times, respectively (FIG. 4b).

[3] = tested on: hair follicles; assay: Quantitative histomorphometric analysis of hair follicle cycle and number (H&E); format: in vivo, mouse
Method: During the hair telogen phase, the hair on the dorsal skin of 7-week-old C57BL/6 mice (Dae Han BioLink, Chungbuk, Republic of Korea) was depilated using an animal clipper and wax (Veet, Oxy Reckitt Benckiser, Seoul, Republic of Korea). From the next day, 200 μL of placebo (control), 1% IM, 1% minoxidil, or 1% metformin was applied daily to the depilated area using a sterile cotton swab. Images of each animal were captured daily, and the degree of darkness of the color on dorsal skin was quantified in the same area (1.6 cm×3 cm) using the Image J program. The mice were sacrificed, and skin tissues on days 0, 7, 14, and 20 were obtained. Half of the tissues were used for RNA isolation, and the other half were fixed with 4% paraformaldehyde overnight for histochemical analysis. The tissues fixed in Example 1.1. were immersed in 30% sucrose, and then embedded in an OCT compound (Sakura Finetek USA Inc, Torrance, Calif., USA). Frozen fragments were obtained using a cryostat sectioning device (Leica, Wetzlar, Germany) and stained using hematoxylin (Sigma) and eosin (Sigma) (H&E), or each of the antibodies shown in Table 1 below. Immunohistochemical analysis was performed, and fluorescence images were taken with an Olympus microscope (Olympus) According to the guidelines for accurately classifying the hair cycle stages, the hair cycle was quantified by classifying individual hair follicles with H&E staining micrographs in the longitudinal section of each mouse (n>10). The percentage of the anagen phase of the hair was calculated for each group. Hair follicles in the same area (1300 μm width) were counted by H&E staining micrographs in the cross section of each mouse (n>10).

[4] = tested on: mouse embryonic fibroblasts (MEFs); assay: Reprogramming into iPSCs (OSKM) in mouse embryonic fibroblasts, AP staining; format: cell-based; conditions: MEFs; for enhancing reprogramming efficiency: 14 days
Method: During reprogramming into iPSCs by introducing OSKM reprogramming factor into mouse embryonic fibroblasts (MEFs), rotenone, the guanidine derivatives of the present invention, and phenformin were treated at the indicated concentrations. After 14 days, alkaline phosphatase (AP) staining was performed (FIG. 2A), and the number of AP^+ colonies was quantified (FIG. 2b). […] In the subsequent experiment, additional efficacy was evaluated using only the three compounds showing the effective reprogramming-enhancing effect.

Cc1ccccc1CCNC(=N)NC(=N)N [IM176OUT05, N-1-(2-methyl)phenethylbiguanide] was tested, and the “wound area of the auricle” value [1] was “reduced the wound area of the auricle in a dose-dependent manner”, the “improvement of effect of maintaining stemness” value ([2]; 10 nM) was 7.6 times and the “improvement of effect of maintaining stemness” value ([2]; 100 nM) was 8.2 times. For the same compound, the “AP staining (stemness)” value ([2]; hESCs in unconditioned medium, low dose) was “increase in AP staining”, the “number of hair follicles compared to control” value ([3]; day 7, cross section) was “significantly increased” and the “number of hair follicles compared to control” value ([3]; day 20) was “significantly higher”. The “stage of most hair follicles” value ([3]; day 20, longitudinal section) was “growth phases V and VI”, the “progression of the hair follicle cycle” value ([3]; histomorphometry) was “stimulated the progression of the hair follicle cycle” and the enhancing reprogramming efficiency ([4]; 10 nM) was 16.8 times. For the same compound, the enhancing reprogramming efficiency ([4]; 20 nM) was 13.9 times, the enhancing reprogramming efficiency ([4]; 50 nM) was 13.7 times and the “effect on reprogramming, number of AP+ colonies” value ([4]; OSKM, after 14 days, indicated concentrations) was “increased”.
